Laboratory results published in patent US12383535B2, “Hydrogen peroxide-responsive KEAP1-NRF2 ppi inhibitor prodrug, and preparation method therefor” (CHINA PHARMACEUTICAL UNIVERSITY, priority 2019, dated 2025).

Legend:
[1] = Drug release rate by HPLC (H2O2 activation of prodrug); format: physicochemical
Experimental: The target compound was dissolved in DMSO to give a 10 mM stock solution, which was then stored at −20° C. The final concentration was brought to 50 μM by adding the target compound (10 mM) to phosphate buffered saline (PBS) (10 mM, pH 7.4), and H2O2 was added. The solution was well vortexed, and then incubated at 37° C. Samples were taken at appropriate time intervals and analyzed by HPLC directly after injection, and the peak areas were recorded to calculate the percentage of the compound. The procedure was repeated three times. The following Agilent 1260 HPLC and DAD detectors were used: Agilent C18 column (4.6×150 mm, 3.5 μm); mobile phase: 70% methanol; flow rate: 0.5 mL/min. A standard curve of the compound was plotted against concentration.
After treatment with 10 mM H2O2, the prodrug pro2 was activated with prolonged incubation time and the active parent compound 2 was completely released within 3 h (HPLC-determined conversion >98%, (B) of FIG. 1 and (C) of FIG. 1).

[2] = system: Nrf2-ARE-driven gene transcription in RAW264.7 cells; experiment: Real-time quantitative PCR of Nrf2, HO-1, NQO1 and GCLM; format: cell-based, mouse; conditions: 20 ng/mL LPS 8 h, compound 500 nM
Experimental: The procedures were performed according to the real-time quantitative RT-PCR experimental procedures reported previously (Z. Jiang, M. Lu, Q. D. You, Discovery and Development of Kelch-like ECH-Associated Protein 1: Nuclear Factor Erythroid 2-Related Factor 2 (KEAP1:NRF2) Protein-Protein Interaction Inhibitors: Achievements, Challenges and Future Directions, J. Med. Chem., 59 (2016) 10837-10858). The primers used for qRT-PCR were as follows: Nrf2 (forward primer: AACCACCCTGAAAGCACGC, reverse primer: […]); HO-1 (forward primer: […], reverse primer: […]); NQO-1 (forward primer: CGCAGACCTT-GTGATATTCCAG, reverse primer: […]); GCLM (forward primer: […], reverse primer: […]).
(§1) To determine the effect of pro2 on Nrf2-ARE-driven gene transcription, mRNA levels of Nrf2 and three downstream genes, HO-1, NQO1 and GCLM, were examined ((A) of FIG. 4 to (D) of FIG. 4). […] The protein levels of the above genes were determined by western blot.

[3] = system: Nrf2 and downstream antioxidant enzyme in RAW264.7 cells; experiment: Western blot of Nrf2 targeting proteins; format: cell-based, mouse; conditions: LPS, same concentration
Experimental: Anti-Nrf2 (ab62352) and anti-IL-1β (ab45692) antibodies were purchased from Abcam Technology (England). Anti-HO-1 (SC-136960) and anti-NQO1 (SC-271116) antibodies were purchased from Santa Cruz Biotechnology (California, USA). Anti-β-Actin (60008-1-Ig) and anti-GCLM (14241-1-AP) antibodies were purchased from Proteintech Group (USA). Cell sampling and western blot were performed as previously reported (M.-C. Lu, J.-A. Ji, Y.-L. Jiang, Z.-Y. Chen, Z.-W. Yuan, Q.-D. You, Z.-Y. Jiang, An inhibitor of the Keap1-Nrf2 protein-protein interaction protects NCM460 colonic cells and alleviates experimental colitis, Sci. Rep., 6 (2016) 26585).
as §1

[4] = Parallel artificial membrane permeability assay (PAMPA); format: in vitro ADME
Experimental: Potential solubility data were obtained with a pSOL model 3 instrument (pION INC, Cambridge, Massachusetts, USA). Cell membrane permeability was determined on a PAMPA Explorer instrument (pION).
Subsequently, the permeability of cell membranes was measured by standard parallel artificial membrane permeability assay (PAMPA).

[5] = Stability in liver microsomes (rat); format: in vitro ADME
Experimental: (3) Stability in microsomes. Isolated liver microsomes (from CD-1 male rats and human males) were used to evaluate the stability of the compound in microsomes in vitro. Ketanserin was used as a reference compound. A liver microsome solution (20 mg/mL) was added to a microcentrifuge tube containing PBS at 37° C. and the mixture was shaken for 10 min prior to assay. Then a DMSO solution (0.5 mM) containing the test compound was added. At 0 min, pre-cooled acetonitrile was added followed by an NADPH stock solution (6 mM). The plates were pre-incubated at 37° C. for 5 min. The timer started upon the addition of the NADPH stock solution (6 mM) to the plates. At 5 min, 15 min, 30 min and 45 min, pre-cooled acetonitrile was added to the wells of the respective plates to stop the reactions. After the reaction was quenched, the plates were shaken on a shaker for 10 min and then centrifuged at 5000 rpm for 15 min. The supernatant from each well was transferred to a 96-well sample plate containing ultrapure water for LC-MS/MS analysis.

Stability in plasma = format: in vitro ADME
Experimental: (2) Stability in plasma. Samples (20 μM) of the prodrug pro2 were co-incubated in triplicate with mouse plasma at 37° C. at different time periods. Methanol was added to precipitate the proteins, and the samples were vortexed and then centrifuged at 12,000 rpm for 5 min. The supernatants were analyzed by HPLC and the peak areas were recorded.

[6] = pKa and log D by Avdeef-Bucher potentiometric titration; format: physicochemical
Experimental: Through Avdeef-Bucher potentiometric titration, pKa and partition coefficients (log D, pH 7.4) were determined on a Gemini Profiler instrument (pION) according to the method of Avdeef and Tsinman. pH measurements were used to determine the intrinsic solubility.

[7] = In vivo pharmacokinetic study; design: species or system SD rats; conditions: rat
Experimental: Six male SD rats weighing about 260 g were used, with 3 rats for PO study and the other 3 rats for IV study. The test compound was dissolved in normal saline with a cosolvent to prepare a solution before the study. For the PO study, animals were administered orally (10 mg/kg). […] Blood was sampled at 0.0833, 0.25, 0.5, 1, 2, 4, 6, 8, 24 h in groups IV and PO. The blood samples were preserved on ice and then centrifuged at 2000 rpm and 4° C. for 10 min for separating plasma. The plasma samples were transferred and stored at −80° C. before analysis by LC-MS/MS.

COc1ccc(S(=O)(=O)Nc2ccc(N(CC(=O)N3CCSC3=O)S(=O)(=O)c3ccc(OC)cc3)c3ccccc23)cc1 [pro2]
time to complete release of the active parent compound 2 ([1]; 10 mM H2O2): ≤ 3 h
HPLC-determined conversion ([1]; 10 mM H2O2, within 3 h): > 98%
release of the active parent compound 2 ([1]; H2O2 0.8 mM, 24 h incubation, HPLC): no less than 50%
transcription of Nrf2, HO-1, NQO1 and GCLM (mRNA) [2]: greatly enhanced the transcription
protein levels of Nrf2 and downstream antioxidant enzyme [3]: significantly increased levels of Nrf2 and downstream antioxidant enzyme
Pe at pH 7.4 [4]: 6.35 10^−6 cm/s
Papp ([4]; pH 7.4, read-out: Pe at pH 7.4): 6.35 ×10⁻⁶ cm/s
stability in co-incubation with rat liver microsomes [5]: very stable
stability in rat plasma (Stability in plasma): very stable
pKa [6]: 4.53
LogD at pH 7.4 ([6]; pH 7.4): 2.34
AUC0-t ([7]; I.V. 2 mg/kg): 1842 ± 363 ng·h/mL
AUC0-∞ ([7]; I.V. 2 mg/kg): 1854 ± 366 ng·h/mL
Cl_F ([7]; I.V. 2 mg/kg): 18.5 ± 3.9 mL/min/kg
MRT ([7]; I.V. 2 mg/kg): 1.25 ± 0.30 h
T1/2 ([7]; I.V. 2 mg/kg): 4.41 ± 3.01 h
Vz_F ([7]; I.V. 2 mg/kg): 6.44 ± 4.09 L/kg
AUC0-t ([7]; P.O. 10 mg/kg): 6203 ± 248 ng·h/mL
AUC0-∞ ([7]; P.O. 10 mg/kg): 6315 ± 273 ng·h/mL
Cl_F ([7]; P.O. 10 mg/kg): 26.4 ± 1.14 mL/min/kg
Cmax ([7]; P.O. 10 mg/kg): 2753 ± 15.3 ng/mL
MRT ([7]; P.O. 10 mg/kg): 1.82 ± 0.35 h
T1/2 ([7]; P.O. 10 mg/kg): 2.09 ± 0.93 h
Tmax ([7]; P.O. 10 mg/kg): 0.67 ± 0.29 h
Vz_F ([7]; P.O. 10 mg/kg): 4.79 ± 2.17 L/kg
bioavailability ([7]; oral): 68.1%
